Experimental data: patent US8841281B2, “Transition metal complexes of amino acids and related ligands and their use as catalysts, anti-microbials, and anti-cancer agents” (Virginia Tech Intellectual Properties, Inc., priority 2011, dated 2014)
Like-named read-outs stand apart in the source and are kept apart here.

Experiments:
[1] = tested on: MRSA; assay: Activity against MRSA strains (Table VIIIB, compounds used alone); format: cell-based, Staphylococcus aureus; details: ligand compound used alone, not complexed
[2] = tested on: Mycobacterium abscessus strain AAy-P-1
[3] = tested on: Mycobacterium avium strain A5
[4] = tested on: Mycobacterium chelonae strain EO-P-1
[5] = tested on: Mycobacterium intracellulare
[6] = tested on: M. abscessus; assay: 96 well plate dilution test, MIC against M. abscessus; format: cell-based
[7] = tested on: Mycobacterium bovis strain BCG; format: cell-based
[8] = tested on: Mycobacterium smegmatis strain mc^2155; format: cell-based
[9] = tested on: M. smegmatis; assay: 96 well plate dilution test, MIC against M. smegmatis; format: cell-based
[10] = tested on: Mycobacterium marinum ATCC 927
[11] = tested on: M. chelonae; assay: 96 well plate dilution test, MIC against M. chelonae; format: cell-based
[12] = tested on: methicillin-resistant Staphylococcus aureus (MRSA); assay: 96 well plate dilution test, MIC against MRSA; format: cell-based; details: Pd(AA)2 complexes against MRSA
Method: Biological activities of complexes of Formula 1 were tested against various strains of bacteria using the following general procedure. It is noted that complexes of Formula 2 and Formula 3 were tested using the same procedure. Generally, 96 well plate dilution tests were performed using a 96-well plate consisting of 8 rows and 12 columns. Each well is charged with the test organism in the appropriate growth medium. The test complex is also dissolved in the test medium and the first well is charged with sufficient complex solution to provide a concentration of 250 ug/mL. […] Well 12 is used as a control with no test complex. The plates are incubated for 48 hrs in the case of bacteria and 4-5 days in the case of mycobacteria. The wells are read using a spectrophotometer measuring turbidity at 540 nm. A high optical density indicates significant cell growth while a low optical density indicates significant inhibition. All results reported are normalized in terms of inhibition of cell growth and reported as MICs.
Biological activity is expressed in terms of the Minimum Inhibitory Concentration (MIC) in units of micrograms per mL. The MIC is the lowest concentration of the complex at which full inhibition of organism growth is observed.
Octahedral iridium(III) complexes of Formula 2 were tested against various strains of bacteria using the procedure described above for Formula 1. Biological activity is expressed in terms of the MIC in units of micrograms per mL.

[13] = tested on: mycobacteria, Staphylococcus aureus and methicillin-resistant S. aureus (MRSA); details: among Ir, Ru, Rh L-α-amino acid complexes
[14] = tested on: gram positive MRSA
[15] = Ruthenium piano stool complexes

Compound	Minimal Inhibitory Concentration (MIC) M. abscessus [2] [µg/mL]	Minimal Inhibitory Concentration (MIC) M. avium [3] [µg/mL]	Minimal Inhibitory Concentration (MIC) M. chelonae [4] [µg/mL]	Minimal Inhibitory Concentration (MIC) M. intracellulare [5] [µg/mL]	Minimal Inhibitory Concentration (MIC) M. smegmatis [8] [µg/mL]	Minimal Inhibitory Concentration (MIC) M. marinum [10] [µg/mL]	also measured
CNCCN [N-methylethylenediamine, reference compound]	–	–	–	–	–	–	activity against MRSA when used alone [1]: not active
NCCN [ethylenediamine, reference compound]	–	–	–	–	–	–	activity against MRSA when used alone [1]: not active
Cp*IrCl (L-Valine) [1 (L-val)]	61	>250	31	>250	17	>250	M. abscessus MIC ([6]; Iridium piano stool complexes): 7.5 µg/mL; Minimal Inhibitory Concentration (MIC) M. bovis [7]: 31 µg/mL; M. smegmatis MIC ([9]; Iridium piano stool complexes): 3.9 µg/mL; M. chelonae MIC [11]: 7.5 µg/mL
palladium(II) bis-valine [Pd(Val)2]	–	–	–	–	–	–	MIC [12]: 9.0 µg/mL
CC(N)C(=O)[O][Ru][Cl].Cc1ccc(C(C)C)cc1 [Ru(p-cymene)ala]	–	–	–	–	–	–	M. abscessus MIC [6, 15]: 7.5 µg/mL; M. smegmatis MIC [9, 15]: 7.5 µg/mL; M. chelonae MIC [11, 15]: 7.5 µg/mL
Napthalenediamine [reference compound]	–	–	–	–	–	–	activity against MRSA when used alone [1]: active
Cp*IrCl (D-Proline) [1 (D-pro)]	>250	>250	>250	>250	>250	>250	Minimal Inhibitory Concentration (MIC) M. bovis [7]: >250 µg/mL
CN(C)CCN [N,N-dimethylethylenediamine, reference compound]	–	–	–	–	–	–	activity against MRSA when used alone [1]: not active
NC(CO)C(=O)[O-].NC(CO)C(=O)[O-].[Pd+2] (stereo not shown) [Pd(Ser)2]	–	–	–	–	–	–	MIC [12]: inactive
Cc1c(C)c(C)[c-](C)c1C.NC(Cc1ccc(O)cc1)C(=O)[O-].[Cl-].[Ir+3] [Ir(Cp*)L-Tyr]	–	–	–	–	–	–	M. chelonae MIC ([11]; Iridium piano stool complexes): Inactive
Cp*IrCl (L-Alanine) [1 (L-ala)]	31	>250	61	61	15	>250	M. abscessus MIC ([6]; Iridium piano stool complexes): 7.5 µg/mL; Minimal Inhibitory Concentration (MIC) M. bovis [7]: 31 µg/mL; M. smegmatis MIC ([9]; Iridium piano stool complexes): 7.5 µg/mL; M. chelonae MIC [11]: 7.5 µg/mL
Cp*IrCl (L-Phenylglycine) [1 (L-phengly)]	31	>250	10	15	5	>250	relative anti-mycobacterial / antibiotic activity [13]: highest activity; Minimal Inhibitory Concentration (MIC) M. bovis [7]: 10 µg/mL
Cp*IrCl (Glycine) [1 (L-gly)]	125	>250	125	>250	61	>250	–
[Ir(COD)(ethambutol)]Cl [3 (EMB)]	61	>250	61	>250	61	>250	MIC ([14]; gram positive MRSA): 8.1 µg/mL
CC(N)C(=O)[O-].CC(N)C(=O)[O-].[Pd+2] (stereo not shown) [Pd(Ala)2]	–	–	–	–	–	–	MIC [12]: inactive
Cp*IrCl (L-Leucine) [1 (L-leu)]	32	>250	32	32	32	>250	M. smegmatis MIC ([9]; Iridium piano stool complexes): 3.9 µg/mL; M. chelonae MIC [11]: 3.9 µg/mL
CC(C)CC(N)C(=O)[O-].Cc1ccc(C(C)C)cc1.[Cl-].[Ru+2] [Ru(p-cymene)leu]	–	–	–	–	–	–	M. abscessus MIC [6, 15]: 7.5 µg/mL; M. smegmatis MIC [9, 15]: 3.9 µg/mL; M. chelonae MIC [11, 15]: 7.5 µg/mL
[Ir(COD)(N,N-dimethylethylenediamine)]Cl [3 (N,N-methyl en)]	>250	>250	>250	>250	>250	>250	MIC [14]: >250 µg/mL; Minimal Inhibitory Concentration (MIC) M. bovis [7]: >250 µg/mL
Cp*IrCl (L-Serine) [1 (L-ser)]	–	>250	–	–	>250	–	M. chelonae MIC [11]: Inactive
Cp*IrCl (L-Phenylalanine) [1 (L-phe)]	–	–	–	–	–	–	relative anti-mycobacterial / antibiotic activity [13]: highest activity
Cp*IrCl (N-methyl-Glycine) [1 (L-N-methylgly)]	–	>250	–	–	>250	–	–
CC(C)C(N)C(=O)[O-].Cc1ccc(C(C)C)cc1.[Cl-].[Ru+2] [Ru(p-cymene)Val]	–	–	–	–	–	–	M. abscessus MIC [6, 15]: 7.5 µg/mL; M. smegmatis MIC [9, 15]: 7.5 µg/mL; M. chelonae MIC [11, 15]: 7.5 µg/mL
CC[C@@H](CO)NCCN[C@@H](CC)CO [ethambutol, reference compound]	–	–	–	–	–	–	activity against MRSA when used alone [1]: not active
[Ir(COD)(ethylenediamine)]Cl [3 (en)]	61	>250	61	61	125	>251	MIC ([14]; gram positive MRSA): 8.1 µg/mL
[Ir(COD)(N-methylethylenediamine)]Cl [3 (N-methyl en)]	>250	>250	>250	>250	>250	>250	MIC [14]: 16.2 µg/mL; Minimal Inhibitory Concentration (MIC) M. bovis [7]: >250 µg/mL
Cp*IrCl (L-Trans-4-Hydroxyproline) [1 (L-hyp)]	–	>250	–	–	>250	–	–
O=C([O][Pd][O]C(=O)C1CCCN1)C1CCCN1 (stereo not shown) [Pd(Pro)2, bis-prolinato palladium(II)]	–	–	–	–	–	–	MIC [12]: 7.5 µg/mL
